Data taken from patent US20240182431A1, “NEW CONTRAST AGENT FOR USE IN MAGNETIC RESONANCE IMAGING” (Bayer Aktiengesellschaft, priority 2021, published 2024).

Assay: Partition coefficient (logP butanol/buffer)
Assay type: physicochemical
Details: 1-butanol / 50 mM Tris-HCl, pH 7.4, room temperature

Log P (butanol/buffer) | SMILES
−0.71 | CCCOc1ccc(CCC(C(=O)O)N2CCN(CC(=O)[O-])CCN(CC(=O)[O-])CCN(CC(=O)[O-])CC2)cc1.[Gd+3] (centres unmarked) [Example 24, gadolinium 2,2′,2″-{10-[1-carboxy-3-(4-propoxyphenyl)propyl]-1,4,7,10-tetraazacyclododecane-1,4,7-triyl}triacetate]
−0.41 | CCOc1ccc(CCCC[C@@H](C(=O)O)N2CCN(CC(=O)[O-])CCN(CC(=O)[O-])CCN(CC(=O)[O-])CC2)cc1.[Gd+3] [Example 27, gadolinium 2,2′,2″-{10-[(1S)-1-carboxy-5-(4-ethoxyphenyl)pentyl]-1,4,7,10-tetraazacyclo-dodecane-1,4,7-triyl}triacetate]
−0.77 | O=C([O-])CN1CCN(CC(=O)[O-])CCN([C@H](Cc2ccc(OCC(F)(F)F)cc2)C(=O)O)CCN(CC(=O)[O-])CC1.[Gd+3] [Example 47, gadolinium 2,2′,2″-(10-{(1R)-1-carboxy-2-[4-(2,2,2-trifluoroethoxy)phenyl]ethyl}-1,4,7,10-tetraazacyclododecane-1,4,7-triyl)triacetate]
−1.60 | CCOCCOCCOCCOc1ccc(CC(C(=O)O)N2CCN(CC(=O)[O-])CCN(C(CO)C(=O)[O-])CCN(CC(=O)[O-])CC2)cc1.[Gd+3] (centres unmarked) [Example 42, gadolinium-2-{7-[1-carboxy-2-(4-{2-[2-(2-ethoxyethoxy)ethoxy]ethoxy}phenyl)ethyl]-4,10-bis(carboxylatomethyl)-1,4,7,10-tetraazacyclododecan-1-yl}-3-hydroxypropanoate]
−1.61 | CCOCCOCCOc1ccc(C[C@@H](C(=O)O)N2CCN(CC(=O)[O-])CCN(CC(=O)[O-])CCN(CC(=O)[O-])CC2)cc1.[Gd+3] [Example 3, gadolinium 2,2′,2″-{10-[(1S)-1-carboxy-2-{4-[2-(2-ethoxyethoxy)ethoxy]phenyl}ethyl]-1,4,7,10-tetraazacyclododecane-1,4,7-triyl}triacetate]
−1.63 | CCOCCOCCOc1ccc(CC(C(=O)O)N2CCN(CC(=O)[O-])CCN(CC(=O)[O-])CCN(CC(=O)[O-])CC2)cc1.[Gd+3] (centres unmarked) [Example 2, gadolinium 2,2′,2″-{10-[1-carboxy-2-{4-[2-(2-ethoxyethoxy)ethoxy]phenyl}ethyl]-1,4,7,10-tetraazacyclododecane-1,4,7-triyl}triacetate]
−1.81 | CCOCCOCCOc1ccc(CC(C(=O)O)N2CCN(CC(=O)[O-])CCN(CC(=O)[O-])CCN(CC(=O)[O-])CC2)cn1.[Gd+3] (centres unmarked) [Example 16, gadolinium 2,2′,2″-{10-[1-carboxy-2-{6-[2-(2-ethoxyethoxy)ethoxy]pyridin-3-yl}ethyl]-1,4,7,10-tetraazacyclododecane-1,4,7-triyl}triacetate]
−0.36 | COCC(C(=O)O)N1CCN(CC(=O)[O-])CCN(C(Cc2ccc(OCC(F)(F)C(F)F)cc2)C(=O)[O-])CCN(CC(=O)[O-])CC1.[Gd+3] (centres unmarked) [Example 45, gadolinium-2-{4,10-bis(carboxylatomethyl)-7-[1-carboxy-2-methoxyethyl]-1,4,7,10-tetraazacyclododecan-1-yl}-3-[4-(2,2,3,3-tetrafluoropropoxy)phenyl]propanoate]
−0.53 | CCCC(C(=O)[O-])N1CCN(CC(=O)[O-])CCN(C(Cc2ccc(OCC)cc2)C(=O)O)CCN(CC(=O)[O-])CC1.[Gd+3] (centres unmarked) [Example 29, gadolinium 2-{7-[1-carboxy-2-(4-ethoxyphenyl)ethyl]-4,10-bis(carboxylatomethyl)-1,4,7,10-tetraazacyclododecan-1-yl}pentanoate]
−1.01 | CCOCCOCCOc1ccc(CCC[C@@H](C(=O)O)N2CCN(CC(=O)[O-])CCN(CC(=O)[O-])CCN(CC(=O)[O-])CC2)cc1.[Gd+3] [Example 26, gadolinium 2,2′,2″-{10-[(1S)-1-carboxy-4-{4-[2-(2-ethoxyethoxy)ethoxy]phenyl}butyl]-1,4,7,10-tetraazacyclododecane-1,4,7-triyl}triacetate]
−1.11 | CCOCCOCCOc1ccc(CCC[C@@H](C(=O)O)N2CCN([C@H](CO)C(=O)[O-])CCN([C@H](CO)C(=O)[O-])CCN([C@H](CO)C(=O)[O-])CC2)cc1.[Gd+3] [Example 20, gadolinium (2R,2′R,2″R)-2,2′,2″-{10-[(1S)-1-carboxy-4-{4-[2-(2-ethoxyethoxy)ethoxy]phenyl}butyl]-1,4,7,10-tetraazacyclododecane-1,4,7-triyl}tris(3-hydroxypropanoate)]
−1.02 | CCOCCOCCOc1ccc(CCC[C@@H](C(=O)O)N2CCN([C@@H](CO)C(=O)[O-])CCN([C@H](CO)C(=O)[O-])CCN([C@@H](CO)C(=O)[O-])CC2)cc1.[Gd+3] [Example 35, gadolinium (2S,2′S)-2,2′-{4-[(1S)-1-carboxy-4-{4-[2-(2-ethoxyethoxy)ethoxy]phenyl}butyl]-10-[(1R)-1-carboxylato-2-hydroxyethyl]-1,4,7,10-tetraazacyclododecane-1,7-diyl}bis(3-hydroxypropanoate)]
−1.41 | CCOCCOc1ccc(CC(C(=O)O)N2CCN(CC(=O)[O-])CCN(C(COC)C(=O)[O-])CCN(CC(=O)[O-])CC2)cc1.[Gd+3] (centres unmarked) [Example 38, gadolinium 2-[7-{1-carboxy-2-[4-(2-ethoxyethoxy)phenyl]ethyl}-4,10-bis(carboxylatomethyl)-1,4,7,10-tetraazacyclododecan-1-yl]-3-methoxypropanoate]

SMILES | Log P (butanol/buffer)
O=C([O-])CN1CCN(CC(=O)[O-])CCN(C(Cc2ccc(OCC(F)(F)C(F)F)cc2)C(=O)O)CCN(CC(=O)[O-])CC1.[Gd+3] (centres unmarked) [Example 46, gadolinium 2,2′,2″-(10-{1-carboxy-2-[4-(2,2,3,3-tetrafluoropropoxy)phenyl]ethyl}-1,4,7,10-tetraazacyclododecane-1,4,7-triyl)triacetate] | −0.57
CCCCOc1cccc(CCC[C@@H](C(=O)O)N2CCN([C@@H](CO)C(=O)[O-])CCN([C@@H](CO)C(=O)[O-])CCN([C@@H](CO)C(=O)[O-])CC2)c1.[Gd+3] [Example 34, gadolinium (2S,2′S,2″S)-2,2′,2″-{10-[(1S)-4-(3-butoxyphenyl)-1-carboxybutyl]-1,4,7,10-tetraazacyclododecane-1,4,7-triyl}tris(3-hydroxypropanoate)] | 0.12
CCCCOc1ccc(CCCC[C@@H](C(=O)O)N2CCN([C@@H](CO)C(=O)[O-])CCN([C@@H](CO)C(=O)[O-])CCN([C@@H](CO)C(=O)[O-])CC2)cc1.[Gd+3] [Example 9, gadolinium (2S,2′S,2″S)-2,2′,2″-{10-[(1S)-5-(4-butoxyphenyl)-1-carboxypentyl]-1,4,7,10-tetraazacyclododecane-1,4,7-triyl}tris(3-hydroxypropanoate)] | 0.26
CCOCCOCCOc1ccc(CC(C(=O)O)N2CCN(C(CCO)C(=O)[O-])CCN(C(CCO)C(=O)[O-])CCN(C(CCO)C(=O)[O-])CC2)cc1.[Gd+3] (centres unmarked) [Example 37, gadolinium-2,2′-{4-[1-carboxy-2-{4-[2-(2-ethoxyethoxy)ethoxy]phenyl}ethyl]-10-[1-carboxylato-3-hydroxypropyl]-1,4,7,10-tetraazacyclododecane-1,7-diyl}bis(4-hydroxybutanoate)] | −1.16
